Test results as given in the supplement of paper PMC11061612.

What was measured:
[1] = compound: Cc1cc2ncnn2cc1Nc1ncc2c(n1)n(C1CCOCC1)c(=O)n2C [AZD7648]; conditions: max 10 µM
Method in brief: (§1)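 Cancer cell lines were dosed for 72 hours (final DMSO typically 0.2%) after 24 hours at 37°C and 5% CO2 in 1536-well plates containing 7.5 μl DMEM/F12 or RPMI with 10% FBS. Viability came from CellTiter-Glo 2.0 luminescence, scaled between blank-well and DMSO-well means, and dose responses were fitted to a two-parameter logistic curve with a non-linear mixed effects model. The single-agent IC50 was obtained from this fit.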

[2] = compound: CC(C)n1c(=O)n(C)c2cnc3cc(F)c(-c4ccc(OCCCN5CCCCC5)nc4)cc3c21 [AZD1390]; conditions: max 0.3 µM
Method in brief: as §1

[3] = compound: CC1=C(C(=CC=C1)Cl)NC(=O)C2=CN=C(S2)NC3=CC(=NC(=N3)C)N4CCN(CC4)CCO [Dasatinib]; conditions: max 2 µM
Method in brief: as §1

[4] = compound: COc1nnc2ccc(N3CCC(c4ccc(OCCN5CCN(C)C(=O)[C@H]5C)cc4)CC3)nn12 [AZD5153]; conditions: max 1 µM
Method in brief: as §1

[5] = compound: COc1cccc(OCCCN)c1-c1cc(Nc2cnc(C#N)cn2)n[nH]1 [Prexasertib]; conditions: max 1 µM
Method in brief: as §1

[6] = compound: CN(C)CCCOc1ccc(-c2ccc3ncc4c(c3c2)n(C2CCOCC2)c(=O)n4C)cn1 [AZD0156]; conditions: max 3 µM
Method in brief: as §1

[7] = compound: COc1cc2ncnc(Nc3ccc(F)c(Cl)c3)c2cc1OCCCN1CCOCC1 [Gefitinib]; conditions: max 10 µM
Method in brief: as §1

[8] = compound: CCN(CCO)CCCOc1ccc2c(Nc3cc(CC(=O)Nc4cccc(F)c4)[nH]n3)ncnc2c1 [AZD2811]; conditions: max 1 µM
Method in brief: as §1

[9] = compound: Cn1cnc2c(F)c(Nc3ccc(Br)cc3Cl)c(C(=O)NOCCO)cc21 [Selumetinib]; conditions: max 10 µM
Method in brief: as §1

[10] = compound: CS(=O)(=O)CCNCc1ccc(-c2ccc3ncnc(Nc4ccc(OCc5cccc(F)c5)c(Cl)c4)c3c2)o1 [Lapatinib]; conditions: max 10 µM
Method in brief: as §1

[11] = compound: CC(=O)Nc1cccc(-n2c(=O)n(C3CC3)c(=O)c3c(Nc4ccc(I)cc4F)n(C)c(=O)c(C)c32)c1 [Trametinib]; conditions: max 1 µM
Method in brief: as §1

[12] = compound: C=CCn1c(=O)c2cnc(Nc3ccc(N4CCN(C)CC4)cc3)nc2n1-c1cccc(C(C)(C)O)n1 [AZD1775]; conditions: max 3 µM
Method in brief: as §1

[13] = compound: C1CN(CCC1(C(=O)N[C@@H](CCO)C2=CC=C(C=C2)Cl)N)C3=NC=NC4=C3C=CN4 [Capivasertib]; conditions: max 10 µM
Method in brief: as §1

[14] = compound: CN(CC[C@H](CSC1=CC=CC=C1)NC2=C(C=C(C=C2)S(=O)(=O)NC(=O)C3=CC=C(C=C3)N4CCC(CC4)[C@H](C5=CC=CC=C5C6=CC=C(C=C6)Cl)O)S(=O)(=O)C(F)(F)F)CCO [AZD4320]; conditions: max 1 µM
Method in brief: as §1

[15] = compound: COc1cccc2c1C(=O)c1c(O)c3c(c(O)c1C2=O)C[C@@](O)(C(=O)CO)C[C@@H]3O[C@H]1C[C@H](N)[C@H](O)[C@H](C)O1 [Doxorubicin]; conditions: max 1 µM
Method in brief: as §1

[16] = compound: COc1cc(Nc2ncc3c(n2)-c2ccc(Cl)cc2C(c2c(F)cccc2OC)=NC3)ccc1C(=O)O [Alisertib]; conditions: max 10 µM
Method in brief: as §1

[17] = compound: C[C@@H](Oc1cc(-c2cnn(C3CCNCC3)c2)cnc1N)c1c(Cl)ccc(F)c1Cl [Crizotinib]; conditions: max 10 µM
Method in brief: as §1

[18] = compound: C[C@@H](Nc1cc(F)cc(F)c1)c1cc(C(=O)N(C)C)cc2c(=O)cc(N3CCOCC3)oc12 [AZD8186]
Method in brief: as §1

[19] = compound: O=C(c1cc(Cc2n[nH]c(=O)c3ccccc23)ccc1F)N1CCN(C(=O)C2CC2)CC1 [Olaparib]; conditions: max 10 µM
Method in brief: as §1

[20] = compound: CCc1c2c(nc3ccc(O)cc13)-c1cc3c(c(=O)n1C2)COC(=O)[C@]3(O)CC [SN-38]; conditions: max 0.3 µM
Method in brief: as §1

[21] = compound: CC1=CN2[C@@H](C1)C=NC3=CC(=C(C=C3C2=O)OC)OCCCCCOC4=C(C=C5C(=C4)N=C[C@@H]6CC(=CN6C5=O)C)OC [SG3199]; conditions: max 0.001 µM
Method in brief: as §1

[22] = compound: Cc1c2c(nn1C)CSCc1cc(n(C)n1)CSc1cc(c3ccccc3c1)OCCCc1c(C(=O)O)n(C)c3c-2c(Cl)ccc13 [AZD5991]; conditions: max 1 µM
Method in brief: as §1

[23] = compound: C[C@@H](c1ccc2nccn2c1)n1nnc2ncc(-c3cnn(C)c3)nc21 [Savolitinib]; conditions: max 1 µM
Method in brief: as §1

[24] = compound: CC(=O)c1c(C)c2cnc(Nc3ccc(N4CCNCC4)cn3)nc2n(C2CCCC2)c1=O [Palbociclib]; conditions: max 10 µM
Method in brief: as §1

[25] = compound: CC1(C)CCC(CN2CCN(c3ccc(C(=O)NS(=O)(=O)c4ccc(NCC5CCOCC5)c([N+](=O)[O-])c4)c(Oc4cnc5[nH]ccc5c4)c3)CC2)=C(c2ccc(Cl)cc2)C1 [Venetoclax]; conditions: max 1 µM
Method in brief: as §1

[26] = compound: Cc1nc(-c2cn3c(n2)-c2ccc(-c4cnn(C(C)(C)C(N)=O)c4)cc2OCC3)n(C(C)C)n1 [Taselisib]; conditions: max 10 µM
Method in brief: as §1

[27] = compound: C[C@@H]1COCCN1C2=NC(=NC(=C2)C3(CC3)[S@](=N)(=O)C)C4=C5C=CNC5=NC=C4 [AZD6738]; conditions: max 10 µM
Method in brief: as §1

[28] = compound: O=c1[nH]cc(F)c(=O)[nH]1 [5-Fluorouracil]; conditions: max 20 µM
Method in brief: as §1

[29] = compound: C1CC(C1)(C(=O)[O-])C(=O)[O-].N.N.[Pt+2] [Carboplatin]; conditions: max 10 µM
Method in brief: as §1

[30] = compound: Nc1ccn([C@@H]2O[C@H](CO)[C@@H](O)C2(F)F)c(=O)n1 [Gemcitabine]; conditions: max 0.3 µM
Method in brief: as §1

[31] = compound: C1CN(CCC1(C(=O)N[C@@H](CCO)C2=CC=C(C=C2)Cl)N)C3=NC=NC4=C3C=CN4 [AZD5363]; conditions: max 10 µM
Method in brief: as §1

[32] = compound: NC1(c2ccc(-c3nc4ccn5c(=O)[nH]nc5c4cc3-c3ccccc3)cc2)CCC1 [MK-2206]; conditions: max 10 µM
Method in brief: as §1

[33] = compound: COc1cc([C@@H]2c3cc4c(cc3[C@@H](O[C@@H]3O[C@@H]5CO[C@@H](C)O[C@H]5[C@H](O)[C@H]3O)[C@H]3COC(=O)[C@H]23)OCO4)cc(OC)c1O [Etoposide]; conditions: max 10 µM
Method in brief: as §1

[34] = compound: N#Cc1cnc(Nc2cc(NC[C@H]3CNCCO3)c(C(F)(F)F)cn2)cn1 [SRA737]; conditions: max 10 µM
Method in brief: as §1

[35] = compound: O=C(Nc1ccc2[nH]nc(-c3ccncc3)c2c1)[C@@H]1CCN(CC(=O)N2CCN(c3ccc(-c4ncccn4)cc3)CC2)C1; conditions: max 5 µM
Method in brief: as §1

[36] = compound: CC(=O)O[C@H]1C(=O)[C@@]2(C)[C@H]([C@H](OC(=O)c3ccccc3)[C@]3(O)C[C@H](OC(=O)[C@H](O)[C@@H](NC(=O)c4ccccc4)c4ccccc4)C(C)=C1C3(C)C)[C@]1(OC(C)=O)CO[C@@H]1C[C@@H]2O [Paclitaxel]; conditions: max 3 µM
Method in brief: as §1

Cell Line	IC50, cell viability 72 h [1]	IC50, cell viability 72 h [2]	IC50, cell viability 72 h [3]	IC50, cell viability 72 h [4]	IC50, cell viability 72 h [5]	IC50, cell viability 72 h [6]	IC50, cell viability 72 h [7]	IC50, cell viability 72 h [8]	IC50, cell viability 72 h [9]	IC50, cell viability 72 h [10]	IC50, cell viability 72 h [11]	IC50, cell viability 72 h [12]	IC50, cell viability 72 h [13]	IC50, cell viability 72 h [14]	IC50, cell viability 72 h [15]	IC50, cell viability 72 h [16]	IC50, cell viability 72 h [17]	IC50, cell viability 72 h ([18]; max 3 µM)	IC50, cell viability 72 h [19]	IC50, cell viability 72 h [20]	IC50, cell viability 72 h [21]	IC50, cell viability 72 h [22]	IC50, cell viability 72 h [23]	IC50, cell viability 72 h [24]	IC50, cell viability 72 h [25]	IC50, cell viability 72 h [26]	IC50, cell viability 72 h [27]	IC50, cell viability 72 h [28]	IC50, cell viability 72 h [29]	IC50, cell viability 72 h [30]	IC50, cell viability 72 h [31]	IC50, cell viability 72 h ([18]; max 10 µM)	IC50, cell viability 72 h [32]	IC50, cell viability 72 h [33]	IC50, cell viability 72 h [34]	IC50, cell viability 72 h [35]	IC50, cell viability 72 h [36]
ALL-SIL (T-Lymphoblastic Leukemia)	> 10 µM	> 0.3 µM	< 0.002 µM	0.237 µM	0.00565 µM	> 3 µM	> 10 µM	0.00494 µM	> 10 µM	> 10 µM	> 1 µM	0.449 µM	> 10 µM	0.00978 µM	0.146 µM	0.0447 µM	0.244 µM	> 3 µM	> 10 µM	0.00152 µM	> 0.001 µM	0.141 µM	> 1 µM	> 10 µM	0.257 µM	6.05 µM	1.43 µM										
CADO-ES1 (Ewing's Sarcoma)	> 10 µM	> 0.3 µM	> 2 µM	> 1 µM	0.05 µM	> 3 µM	> 10 µM	> 1 µM	> 10 µM	> 10 µM	> 1 µM	2.29 µM	> 10 µM	0.243 µM	0.827 µM	0.135 µM	> 10 µM	> 3 µM	> 10 µM	0.00206 µM	> 0.001 µM	0.207 µM	> 1 µM	> 10 µM	0.0609 µM	> 10 µM	2.89 µM										
EJM (Plasma Cell Myeloma)	> 10 µM	> 0.3 µM	> 2 µM	0.414 µM	0.00891 µM	> 3 µM	> 10 µM	> 1 µM	> 10 µM	> 10 µM	> 1 µM	0.202 µM	> 10 µM	> 1 µM	0.837 µM	> 10 µM	6.79 µM	> 3 µM	> 10 µM	0.0259 µM	> 0.001 µM	0.332 µM	> 1 µM	> 10 µM	> 1 µM	> 10 µM	1.65 µM										
EW-1 (Ewing's Sarcoma)	> 10 µM	> 0.3 µM	> 2 µM	0.357 µM	0.0109 µM	> 3 µM	> 10 µM	> 1 µM	> 10 µM	> 10 µM	> 1 µM	0.294 µM	> 10 µM	0.586 µM	0.317 µM	4.9 µM	2.04 µM	> 3 µM	6.67 µM	0.00454 µM	> 0.001 µM	> 1 µM	> 1 µM	5.21 µM	> 1 µM	0.64 µM	2.48 µM										
SK-N-AS (Neuroblastoma)	> 10 µM	> 0.3 µM	> 2 µM	> 1 µM	0.01 µM	> 3 µM	> 10 µM	> 1 µM	> 10 µM	> 10 µM	0.126 µM	1 µM		> 1 µM	> 1 µM	0.78 µM	> 10 µM		> 10 µM	0.0812 µM	> 0.001 µM	> 1 µM	> 1 µM	> 10 µM	> 1 µM	> 10 µM	2.94 µM	> 20 µM	> 10 µM	0.232 µM	> 10 µM	> 10 µM	> 10 µM	> 10 µM	8.03 µM	> 5 µM	0.299 µM
